In patent publication US10208028B1, “Methods of treating cancer” (Macau University of Science and Technology, priority 2017, dated 2019):

Columns and labels:
c-MYC = assay: Western blot analysis, c-MYC; format: cell-based; settings: H358 cells, 3, 6, 9 μM, 24 hr
Experimental: (§1) The cell culture dish was placed in the ice and washed the cells with PBS. Then the PBS was removed to ensure that the cells were lysed in cell lysis buffer containing protease and phosphatase inhibitors. Adherent cells were scraped off from the plate and transferred the lysate into a new tube. The tube was maintained at a constant agitation for 15 min in the ice. Then the tubes were centrifuged at 4° C. 12000 g for 5 min. The supernatant was transferred into a new tube and 4× loading buffer was added to the supernatant. Each sample was boiled at 100° C. for 5 min. Equal amounts of protein (50 μg) were loaded into the wells of a SDS-PAGE gel, along with 3 μl markers. The gel was placed in transfer buffer in sandwich and was transferred to a nitrocellulose filter membrane. After transferring for 3 hr in an ice bucket at a constant current of 300 mA, the membranes were blocked in 5% non-fat milk in TBST at room temperature for 1 hr. The membrane was incubated overnight with the primary antibody solution, against the target protein at 4° C. The blot was rinsed 3 times within 5 min with TBST. The secondary antibody solution was incubated for 1 hr at room temperature. […]
(§2) To determine whether the induction of apoptosis in NSCLC cells was contributed by compound C620-0696-mediated growth inhibition, cleaved PARP1 in compound C620-0696 treated H358 cells was detected. […]

bromodomain of BPTF = bromodomain of BPTF (Homo sapiens, UniProt Q12830); assay: Kinetic binding analysis by biolayer interferometry
Experimental: The Octet Red96 system (Forte Bio, Pall) was used to determine the binding between compound C620-0696 and BPTF. BPTF protein was loaded to saturation onto anti-His capture sensors (ForteBio), then was placed for 2 min in wells containing C620-0696 (concentrations: 3.125, 6.25, 12.5, 25, 50, 100, 200 μM). The baseline and dissociation steps were carried out in the kinetics buffer as per the instrument manufacturer's recommendations. Kinetic binding data in all cases were adequately described accurately by a 1:1 binding model.
FIG. 2A is a graph 200 showing the binding affinity of the bromodomain of BPTF with compound C620-0696 by Biolayer interferometry assay (BLI). BLI is a label-free technology for measuring biomolecular interactions. The bromodomain was immobilized on the streptavidin (SA) biosensors, and then mixed with different concentration of compound C620-0696 at 3.125, 6.25, 12.5, 25, 50, 100, 200 μM.

A549 cells [1] = assay: Wound healing assay; format: cell-based; settings: 24 and 48 hours postinjury, versus control cells
Experimental: A549 cells were seeded onto 6 well plates. When the cell confluence reached about >90% and scratch wounds were made by scraping the cell layer across each plate using the tip of 200 μl pipette. Wounded cultures were incubated in medium for 48 hr, and then visualized by Olympus inverted microscopy to assess cell migration ability.
To evaluate the effect of C620-0696 on cell migration and cellular processes in NSCLC, the wound healing assay was employed to assess the directional cell motility in A549 cells.

PARP1 = assay: Western blot analysis, cleaved PARP1; format: cell-based; settings: H358 cells, 9 μM, 24 hr
Experimental: as §1, §2

A549 cells [2] = assay: Colony formation assay; format: cell-based; settings: A549 cells, 0.5, 1, 1.5 μM, 7 days, versus control group
Experimental: Cell survival was assessed by colony formation as previously described. A549 cells were seeded to six-well plate (500-1000/well). Then cells were exposed to various doses of compound C620-0696. After 7 days, colonies were fixed with 4% paraformaldehyde for 15 minutes and stained with crystal violet for 10-15 minutes. Finally, the staining solution was slowly washed off with water and the cells were air dried.
To determine the effect of the compound C620-0696 on A549 cell growth behavior, a colony formation assay was performed. A549 cells were treated by different concentrations of compound C620-0696, i.e. 0 (control group), 0.5, 1, 1.5 μM.

Cyclin D1 = assay: Western blot analysis, cyclin D1; format: cell-based; settings: H358 cells, 3, 6, 9 μM, 24 hr
Experimental: as §1, §2

A549 cells [3] = assay: MTT assay cell viability; format: cell-based; settings: Homo sapiens, 72 hr treatment
Experimental: (§3) A549 and H358 cell lines were stored in liquid nitrogen. A549 and H358 cells were cultured by RPMI 1640 medium after recovery. RPMI 1640 medium supplemented with 10% fetal bovine serum and 100 units/mL penicillin and 100 μg/mL streptomycin. A549 and H358 cells were grown at 37° C. incubator with 5% CO2.
(§4) All compounds were dissolved in dimethyl sulfoxide (DMSO) and stored at −40° C. HCC78 cells were plated in 96-well micro-plate and plated 3000 cells/well. Then the 96-well micro-plate was put back in the incubator and overnight for cell adhesion. After cell adhesion, the medium was removed and each well was added with 100 μl drug-containing medium. There were three different concentrations for each drug and three duplicate wells for each concentration. Then cell adhesion was cultured overnight for 72 hr. After 72 hr, each well was added with 10 μl of MTT solution and the 96-well plate was put back in the incubator for 4 hr. Then 100 μl of the SDS solution (10% SDS and 0.1 mM HCL) was added to each well and incubated at 37° C. for 4 hr. Finally the absorbance of the plate was measured by an absorbance reader (Tecan, Morrisvill, N.C., USA).
(§5) FIG. 3B is a graph 302 showing the effect of compound C620-0696 on the cell viability of A549 cells. A549 cells were treated by different concentrations of compound C620-0696, i.e. 3, 6, 9 and 12 μM for 72 hr. […]

H358 cells = assay: MTT assay cell viability; format: cell-based; settings: Homo sapiens, NCI-H358, 72 hr treatment
Experimental: as §3, §4, §5

- Koff (bromodomain of BPTF; 1:1 binding model): 1.70×10^−2 S^−1
- Kd (bromodomain of BPTF; 3.125-200 μM, steady-state analysis, read-out: binding affinity KD): 35.5 µM
- IC50 (A549 cells [3]): 11.2 µM
- IC50 (H358 cells): 6.72 µM
Structure (SMILES): CN(C)CCCNc1cc(NCc2ccco2)c2noc3c2c1C(=O)c1ccccc1-3 [compound C620-0696]
- expression of c-MYC (c-MYC): suppressed the expression
- cell migration (wound healing) (A549 cells [1]): migrated more slowly
- levels of cleaved PARP1 (PARP1): significantly increased
- colony formation (A549 cells [2]): significant loss of colony formation
- expression of cyclin D1 (Cyclin D1): reduced the expression of cyclin D1
